Here are results for four compounds from publication PMC9919437 (Molecules, 2023).

The Kd is the constant that tells how readily two partners part at equilibrium.

Like-named read-outs stand apart in the source and are kept apart here.

Assay [1] has as its target T1, BC2L-C-Nt (N-terminal lectin domain of BC2L-C) (Burkholderia cenocepacia, UniProt B4EH86). The conditions noted are these: cited from earlier work.
The next assay has as its system BC2L-C-Nt. In words: STD-NMR competition experiment with α-methyl fucoside. The following applies: 1 mol equiv α-methyl fucoside; for 4 aromatic protons only. It counts as binding, Burkholderia cenocepacia. On the procedure: A great deal of additional information can be gained from STD competition assays, where a known binder is added to a protein–ligand mixture with the aim of displacing the ligand under study and confirm that they are both competing for the same binding site. […] The same competition experiment was performed for 4 in the presence of α-methyl fucoside. The reduction in STD intensity after the addition of the monosaccharide can be evaluated only for the aromatic protons, since the signals of galactose and methyl fucoside overlap in the region 3.8–3.6 ppm, and can be estimated around 60% (Table S2).
NMR experiments were performed on 400 MHz Bruker Avance III and 600 MHz Bruker Avance spectrometers at 298 K in deuterated or aqueous phosphate buffer at pH 7.4. When required, water suppression was achieved by excitation sculpting sequence from standard Bruker library. STD NMR experiments were performed using WATERGATE 3-9-19 pulse sequence for water suppression. […] Intensities of all STD effects (absolute STD) were calculated by division through integrals over the respective signals in STD reference spectra. The different signal intensities of the individual protons are best analyzed from the integral values in the reference and STD spectra, respectively. […]

The target in assay [2] is T1, BC2L-C-Nt (N-terminal lectin domain of BC2L-C). In words: biochemical. It counts as binding.

T1 sequence (B4EH86 1-132 limits assumed): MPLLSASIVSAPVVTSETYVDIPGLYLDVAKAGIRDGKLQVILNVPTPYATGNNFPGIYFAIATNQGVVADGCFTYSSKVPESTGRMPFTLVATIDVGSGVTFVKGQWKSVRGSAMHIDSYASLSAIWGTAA

For the compound `C[C@@H]1O[C@H](C#Cc2ccc(C(C)(C)CN)cc2)[C@@H](O)[C@H](O)[C@@H]1O` [compound 1], the dissociation constant Kd in assay [1] was 290 µM.
Turning to `C[C@@H]1O[C@H](NC(=O)c2ccc(-c3cccc(CN)c3)o2)[C@@H](O)[C@H](O)[C@@H]1O` [compound 3], in the assay on BC2L-C-Nt, the “decrease of STD signal of the ligand after addition of α-methyl fucoside” value is given as 20–26%. The “times less potent than the H-type 1 tetrasaccharide” value in assay [2] was 3.
Regarding `CC(=O)N[C@H]1[C@H](O[C@H]2[C@@H](O)[C@@H](CO)OC(O)[C@@H]2O)O[C@H](CO)[C@@H](O)[C@@H]1O[C@@H]1O[C@H](CO)[C@H](O)[C@H](O)[C@H]1O[C@@H]1O[C@@H](C)[C@@H](O)[C@@H](O)[C@@H]1O` (some centres unmarked) [H-type 1 tetrasaccharide, Fucα1-2Galβ1-3GlcNAcβ1-3Gal, reference compound], the “n (stoichiometry)” value in assay [2] was 0.81. The Kd in assay [2] (pH 7, read-out: KD) came out at 56 ± 4.5 µM.
For the compound `NCc1cccc(-c2ccc(C(=O)NC3OC(CO)C(O)C(O)C3O)o2)c1` (centres unmarked) [compound 4], the “decrease of STD signal of the ligand after addition of α-methyl fucoside” value in the assay with BC2L-C-Nt was “around 60%”. Also, the “factor by which activity is lower than that of 3” value in assay [2] is on record as 2.5. In assay [2] (KD), this compound came in with a Kd of 390 µM.
